From patent US20210040089A1, “KRAS MUTANT PROTEIN INHIBITORS” (Jacobio Pharmaceuticals Co., Ltd., priority 2019, published 2021)

Legend:
KRAS G12C = target: T1, KRAS G12C (Homo sapiens, UniProt P01116, G12C); experiment: SOS1 catalyzed nucleotide exchange assay (TR-FRET); format: biochemical; details: GDP-loaded HIS-KRAS(G12C), 1 hour pre-incubation with compound
T1 construct: HIS-KRAS (G12C, aa 2-185, Sino biological); purchased Sino biological
Experimental: 1. SOS1 Catalyzed Nucleotide Exchange Assay
HIS-KRAS (G12C, aa 2-185, Sino biological) was diluted to […] EDTA buffer (20 mM HEPES, pH 7.4, 50 mM NaCl, 10 mM EDA, 0.01% (v/v) Tween-20) and incubated for 30 min at 25° C. The EDTA pretreated HIS-KRAS(G12C) was diluted to 12 nM in assay buffer (25 mM HEPES, pH 7.4, 120 mM NaCl, 5 mM MgCl2, 1 mM DTI, 0.01% (v/v) Tween 20, 0.1% (w/v) BSA) containing 120 nM GDP(Sigma) and Mab Anti 6HIS-Tb cryptate Gold(Cisbio) and incubated for 1 hour at 25° C. to prepare GDP-loaded HIS-KRAS(G12C). The GDP-loaded HIS-KRAS(G12C) was pre-incubation with diluted compounds in a 384-well plate (Greiner) for 1 hour, then purified SOS 1ExD (Flag tag, aa 564-1049) and BODIPY™FL GTP (Invitrogen) were added to the assay wells (Final concentration: 3 nM HIS-KRAS(G12C), 2 μM SOS1 ExD, 80 nM BODIPY™FL GTP, 21 ng/mL MAb Anti 6HS-Tb cryptate Gold) and incubated for 4 hours at 25° C. TR-FRET signals were then read on Tecan Spark multimode microplate reader. The parameters were F486: Excitation 340 (35) nm, Emission 486 (10) nm, Lag time 100 μs, Integration time […]; F515: Excitation 340 (35) nm, Emission 515 (10) nm, Lag time […], Integration time 200 s. TR-FRET ratios for each individual wells were calculated by equation: TR-FRET ratio=(Signal F515/Signal F486)*10000. Then the data were analyzed using a 4-parameter logistic model to calculate IC50 values.

[1] = system: Phospho-ERK1/2(THR202/TYR204) in NCI-H358 cells express KRAS G12C; experiment: Phospho-ERK1/2(THR202/TYR204) HTRF assay; format: cell-based; details: Homo sapiens; NCI-H358, 2 hours incubation; read-out: p-ERK inhibition in NCI-H358 IC50
Experimental: NCI-H358 cells express KRAS G12C were cultured in RPMI 1640 medium (Gibco) containing 10% fetal bovine serum (Gibco). Cells in culture medium were plated in 96-well plates at a concentration of 40,000 cells/well and allowed to attach overnight. The next day, culture medium was removed and added compounds diluted in assay medium (RPMI 1640, 0.1% EFBS). After 2 hours incubation in a 37° C./5% CO2 cell incubator, the assay medium was removed, then 50 μL of 1× supplemented lysis buffer (Cisbio) was added and the plates were incubated at 25° C. for 45 min with shaking. 10 μL of cell lysates from the 96-well plates were transferred to a 384-well plate (Greiner) containing 2.5 µL/well HTRF® pre-mixed antibodies (Cisbio 64AERPEH).
Incubate 4 hours at 25° C. and then read HTRF signals on Tecan Spark multimode microplate reader. The data were analyzed using a 4-parameter logistic model to calculate IC50 values.

[2] = system: NCI-H358 cells express KRAS G12C; experiment: Cell growth inhibition assay (CCK-8); format: cell-based; details: Homo sapiens, 144 h; NCI-H358, 6 days incubation
Experimental: 3. Cell Growth inhibition assay
NCI-H358 cells express KRAS G12C were cultured in RPMI 1640 medium (Gibco) containing 10% fetal bovine serum (Gibco). Cells in culture medium were plated in 96-well plates at a concentration of 3000 cells/well ([…]) and allowed to attach overnight. The next day, compounds were diluted in culture medium and added to the plates. After 6 days incubation in a 37° C./5% CO2 cell incubator, the medium was removed, then 100 μL of 1×CCK-8 (MCE) in culture medium was added in each well. The plates were incubated 1.5-2 hours in a 37° C./5% CO2 cell incubator. OD450 signals were read on Tecan Spark multimode microplate reader and analyzed using a 4-parameter logistic model to calculate IC50 values.

T1 sequence (P01116 2-185 isoform P01116-2 G12C): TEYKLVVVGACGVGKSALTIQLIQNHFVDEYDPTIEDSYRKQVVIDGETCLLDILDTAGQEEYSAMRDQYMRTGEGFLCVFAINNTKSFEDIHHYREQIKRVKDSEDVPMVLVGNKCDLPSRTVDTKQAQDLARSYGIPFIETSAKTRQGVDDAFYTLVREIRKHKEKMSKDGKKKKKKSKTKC

| Compound | IC50 (KRAS G12C) [nM] | IC50 [1] [nM] | IC50 [2] [nM] |
| --- | --- | --- | --- |
| C=CC(=O)N1CCN(c2nc(OCC3CCC(N(C)C)C3)nc3c2CCN(c2cccc4cccc(C)c24)C3)CC1CC#N (stereo not drawn) [Compound 24, 2-(1-acryloyl-4-(2-((3-(dimethylamino)cyclopentyl)methoxy)-7-(8-methylnaphthalen-1-yl)-5,6,7,8-tetrahydropyrido[3,4-d]pyrimidin-4-yl)piperazin-2-yl)acetonitrile] | 20.1 | 237 | 93.6 |
| C=CC(=O)N1CCN(c2nc(OCC3CCCC3N(C)C)nc3c2CCN(c2cccc(Cl)c2Cl)C3)CC1CC#N (stereo not drawn) [Compound 25, 2-(1-acryloyl-4-(7-(2,3-dichlorophenyl)-2-((2-(dimethylamino)cyclopentyl)methoxy)-5,6,7,8-tetrahydropyrido[3,4-d]pyrimidin-4-yl)piperazin-2-yl)acetonitrile] | 30.2 | 267 | 164 |
| C=CC(=O)N1CCN(c2nc(OCC3CCCC3N(C)C)nc3c2CCN(c2cccc(F)c2C(F)(F)F)C3)CC1CC#N (stereo not drawn) [Compound 26, 2-(1-acryloyl-4-(2-((2-(dimethylamino)cyclopentyl)methoxy)-7-(3-fluoro-2-(trifluoromethyl)phenyl)-5,6,7,8-tetrahydropyrido[3,4-d]pyrimidin-4-yl)piperazin-2-yl)acetonitrile] | 33.7 | 231 | 154 |
| C=CC(=O)N1CCN(c2nc(OCC3CCCC3N(C)C)nc3c2CCN(c2ccccc2C(F)(F)F)C3)CC1CC#N (stereo not drawn) [Compound 27, 2-(1-acryloyl-4-(2-((2-(dimethylamino)cyclopentyl)methoxy)-7-(2-(trifluoromethyl)phenyl)-5,6,7,8-tetrahydropyrido[3,4-d]pyrimidin-4-yl)piperazin-2-yl)acetonitrile] | 84.6 | 566 | 310 |
| C=CC(=O)N1CCN(c2nc(OCC3(CN4CCCC4)CC3)nc3c2CCN(c2cccc(F)c2C(F)(F)F)C3)CC1CC#N (stereo not drawn) [Compound 34, 2-(1-acryloyl-4-(7-(3-fluoro-2-(trifluoromethyl)phenyl)-2-((1-(pyrrolidin-1-ylmethyl)cyclopropyl)methoxy)-5,6,7,8-tetrahydropyrido[3,4-d]pyrimidin-4-yl)piperazin-2-yl)acetonitrile] | 15.9 | 54.5 | 78.6 |
| C=CC(=O)N1CCN(c2nc(OCC3(CN4CCCC4)CC3)nc3c2CCN(c2cccc(Cl)c2Cl)C3)CC1CC#N (stereo not drawn) [Compound 35, 2-(1-acryloyl-4-(7-(2,3-dichlorophenyl)-2-((1-(pyrrolidin-1-ylmethyl)cyclopropyl)methoxy)-5,6,7,8-tetrahydropyrido[3,4-d]pyrimidin-4-yl)piperazin-2-yl)acetonitrile] | 17.9 | 85.3 | 106 |
| C=CC(=O)N1CCN(c2nc(OCC3(CN(C)C)CC3)nc3c2CCN(c2cccc4ccccc24)C3)CC1CC#N (stereo not drawn) [Compound 37, 2-(1-acryloyl-4-(2-((1-((dimethylamino)methyl)cyclopropyl)methoxy)-7-(naphthalen-1-yl)-5,6,7,8-tetrahydropyrido[3,4-d]pyrimidin-4-yl)piperazin-2-yl)acetonitrile] | 6.75 | 81.6 | 85.5 |
| C=CC(=O)N1CCN(c2nc(OCC3(CN4CCCC4)CC3)nc3c2CCN(c2cccc(Cl)c2C(F)(F)F)C3)CC1CC#N (stereo not drawn) [Compound 38, 2-(1-acryloyl-4-(7-(3-chloro-2-(trifluoromethyl)phenyl)-2-((1-(pyrrolidin-1-ylmethyl)cyclopropyl)methoxy)-5,6,7,8-tetrahydropyrido[3,4-d]pyrimidin-4-yl)piperazin-2-yl)acetonitrile] | 5.24 | 66 | 60.2 |
| C=CC(=O)N1CCN(c2nc(OCC3(CN4CCC4)CC3)nc3c2CCN(c2cccc(Cl)c2C(F)(F)F)C3)CC1CC#N (stereo not drawn) [Compound 39, 2-(1-acryloyl-4-(2-((1-(azetidin-1-ylmethyl)cyclopropyl)methoxy)-7-(3-chloro-2-(trifluoromethyl)phenyl)-5,6,7,8-tetrahydropyrido[3,4-d]pyrimidin-4-yl)piperazin-2-yl)acetonitrile] | 7.28 | 79.6 | 104 |
| C=CC(=O)N1CCN(c2nc(OCC3(CN4CCC4)CC3)nc3c2CCN(c2cccc4ccccc24)C3)CC1CC#N (stereo not drawn) [Compound 41, 2-(1-acryloyl-4-(2-((1-(azetidin-1-ylmethyl)cyclopropyl)methoxy)-7-(naphthalen-1-yl)-5,6,7,8-tetrahydropyrido[3,4-d]pyrimidin-4-yl)piperazin-2-yl)acetonitrile] | 13.5 | 149 | 179 |
| C=CC(=O)N1CCN(c2nc(OCC3(CN4CCC4)CC3)nc3c2CCN(c2cccc4cccc(Cl)c24)C3)CC1CC#N (stereo not drawn) [Compound 42, 2-(1-acryloyl-4-(2-((1-(azetidin-1-ylmethyl)cyclopropyl)methoxy)-7-(8-chloronaphthalen-1-yl)-5,6,7,8-tetrahydropyrido[3,4-d]pyrimidin-4-yl)piperazin-2-yl)acetonitrile] | 5.24 | 63.6 | 118 |
| C=CC(=O)N1CCN(c2nc(OCC3(CN4CCC4)CC3)nc3c2CCN(c2cccc4cccc(C)c24)C3)CC1CC#N (stereo not drawn) [Compound 43, 2-(1-acryloyl-4-(2-((1-(azetidin-1-ylmethyl)cyclopropyl)methoxy)-7-(8-methylnaphthalen-1-yl)-5,6,7,8-tetrahydropyrido[3,4-d]pyrimidin-4-yl)piperazin-2-yl)acetonitrile] | 5.04 | 71.8 | 135 |
| C=CC(=O)N1CCN(c2nc(OCC3(CN4CCCC4)CCC3)nc3c2CCN(c2cccc4ccccc24)C3)CC1CC#N (stereo not drawn) [Compound 44, 2-(1-acryloyl-4-(7-(naphthalen-1-yl)-2-((1-(pyrrolidin-1-ylmethyl)cyclobutyl)methoxy)-5,6,7,8-tetrahydropyrido[3,4-d]pyrimidin-4-yl)piperazin-2-yl)acetonitrile] | 33.2 | 220 | 742 |
| C=CC(=O)N1CCN(c2nc(OCC3(CN4CCCC4)CCC3)nc3c2CCN(c2cccc4cccc(C)c24)C3)CC1CC#N (stereo not drawn) [Compound 45, 2-(1-acryloyl-4-(7-(8-methylnaphthalen-1-yl)-2-((1-(pyrrolidin-1-ylmethyl)cyclobutyl)methoxy)-5,6,7,8-tetrahydropyrido[3,4-d]pyrimidin-4-yl)piperazin-2-yl)acetonitrile] | 13.3 | 216 | 590 |
| C=CC(=O)N1CCN(c2nc(OCC3(CN(C)C)CC3)nc3c2CCN(c2cccc4cccc(Cl)c24)C3)CC1CC#N (stereo not drawn) [Compound 46, 2-(1-acryloyl-4-(7-(8-chloronaphthalen-1-yl)-2-((1-((dimethylamino)methyl)cyclopropyl)methoxy)-5,6,7,8-tetrahydropyrido[3,4-d]pyrimidin-4-yl)piperazin-2-yl)acetonitrile] | 2.57 | 14.7 | 26.9 |
| C=CC(=O)N1CCN(c2nc(OCC3(CN(C)C)CC3)nc3c2CCN(c2cccc4cccc(C)c24)C3)CC1CC#N (stereo not drawn) [Compound 47, 2-(1-acryloyl-4-(2-((1-((dimethylamino)methyl)cyclopropyl)methoxy)-7-(8-methylnaphthalen-1-yl)-5,6,7,8-tetrahydropyrido[3,4-d]pyrimidin-4-yl)piperazin-2-yl)acetonitrile] | 1.16 | 23.7 | 26.4 |
